A short description of data set [1]: Pharmacokinetics after oral administration; plasma and brain Leucine[5]-Enkephalin by radioimmunoassay. The format is in vivo, ICR (CD-1) male out bred mice. The note with it: mice.
Method: ICR (CD-1) male out bred mice (18-24 g, 4 weeks old, Harlan, Oxon, UK) were used. The animals were housed in groups of 5 in plastic cages in controlled laboratory conditions with ambient temperature and humidity maintained at ˜22° C. and 60% with a 12-hour light and dark cycle (lights on at 7:00 and off at 19:00). Food and water were available ad libitum and the animals acclimatised for 5-7 days prior to any experiments in the Animal House, School of Pharmacy, University of London (London, UK). Animals were fasted overnight for oral delivery experiments. Animals were only used once and were acclimatised at the testing environment for at least 1 hour prior to testing.
Syringes were attached to 19-20G commercial gavage needles (2-3 cm long) for oral administration.
Double de-ionised filtered (0.2 μm, 33 mm Millex GP syringe driven filter unit, PES membrane for sterilisation of aqueous solutions) water was used as the disperse phase for the oral formulations. […] All formulations were prepared by vortexing (WhirliMixer, Fisherbrand) and then by probe sonication (MSE Soniprep 150) with the instrument set at 50% of its maximum output for 15 minutes on ice. The formulations were left overnight in the fridge; the administered volume was set to a maximum of 0.2 ml per mouse. The administered volume was adjusted based on the HPLC quantification of LENK and TPLENK and the body weight of each animal. The maximum volume was dosed for placebo (H2O) receiving mice.
Blood samples (0.4-0.8 mls per mouse) were collected into a chilled syringe and transferred into evacuated sterile spray coated (with tripotassium ethylenediamine tetraacetic acid—3.6 mg) medical grade PET tubes (3×75 mm K3E Vacutainer©, BD Biosciences, UK) and maintained on ice (4° C.) until centrifugation. There is no dilution effect in spray coated tubes. Plasma was obtained as the supernatant after centrifugation of blood samples at 1,600 g or 4800 rpm for 15 minutes at 4° C. with a Hermle Z323 centrifuge (Hermle Laborteschink GmbH, Germany) and was pipetted into 1.5 mL centrifuge tubes and stored at −70° C. for later use.
Brain tissue minus the cerebellum (0.25-0.35 g) recovered from mice was immediately frozen in liquid nitrogen (−80° C.) until they were homogenised. The brain weight was recorded for each individual animal. After thawing tissues were boiled for 10 minutes in 30 volumes of a mixture of 1M of acetic acid, 0.02M of hydrochloric acid and 0.1% 2-mercaptoethanol (De Ceballos et al. 1991; Ahmed et al. 1994; Wu et al. 2005). The tissues were homogenised with 80 strokes per minute for half a minute with a glass 3 mL homogeniser (Jencons-PLS, England). […]
Data set [2] relates to CD-1 mice. Kind of data set: Antinociception, tail flick warm water bioassay, oral administration. Format: in vivo, ICR (CD-1) male out bred mice. The note with it: 70 mg Kg^-1 Leucine[5]-Enkephalin (L, LG) or 100 mg Kg^-1 TPLENK (PG), out of 16 mice. As to the method: (§1) ICR (CD-1) male out bred mice (22-28 g, 4-5 weeks old, Harlan, Oxon, UK) were used. The animals were housed in groups of 5 in plastic cages in controlled laboratory conditions with ambient temperature and humidity maintained at ˜22° C. and 60% with a 12-hour light and dark cycle (lights on at 8:00 and off at 20:00). Food and water were available ad libitum and the animals acclimatised for 5-7 days, prior to any experiments, in the Animal House, School of Pharmacy, University of London (London, UK). Animals were fasted overnight for oral delivery experiments. Animals were only used once and were acclimatised at the testing environment for at least 20 hours prior to testing. […]
Double de-ionised filtered (0.2 μm, 33 mm Millex GP syringe driven filter unit, PES membrane for sterilisation of aqueous solutions) water was used as the disperse phase. […] The administered volume was adjusted based on HPLC quantification of LENK and TPLENK and the body weight of each animal. […]
Antinociception was assessed in mice using the tail flick warm water bioassay (D'Amour and Smith 1941; Mogil et al. 1999). […] The response latency times, in centiseconds, recorded for each mouse to withdraw its tail by a “sharp flick” were recorded using a digital stopwatch capable of measuring 1/100th of a second. […] Briefly, percent antinociception was calculated as 100% ×(test latency-baseline latency)/(10 seconds−baseline latency). […]

Data set [3] concerns CD-1 mice. Description: Antinociception, tail flick warm water bioassay, intravenous administration. Format: in vivo, ICR (CD-1) male out bred mice. To be noted: 14 mg Kg^-1 Leucine[5]-Enkephalin (L, LG) or 20 mg Kg^-1 TPLENK (PG), out of 8 mice. As for the experimental part:
as §1, with “60% respectively” for “60%”, “were” for “were fasted overnight for oral delivery experiments. Animals were”, “acclimatised in” for “acclimatised at”
Sodium Chloride 0.9% (pH 7.4) was used as the disperse phase. […] The administered volume was adjusted based on HPLC quantification of Leucine^[5]-Enkephalin and TPLENK and the body weight of each animal. […]
Antinociception was assessed in mice using the tail flick warm water bioassay (D'Amour and Smith 1941; Mogil et al. 1999). […] The response latency times, in centiseconds, recorded for each mouse to withdraw its tail by a “sharp flick” were recorded using a digital stopwatch capable of measuring 1/100th of a second. […] Mice not responding within 5 sec were excluded from further testing (Baseline cut-off=5 seconds) and the baseline latency was measured for all mice 2 hours prior testing. […]
All results were expressed as mean±standard error (i.e. SE: SD/√n). […]

Data set [4] is described as follows: HPLC quantification of the peptide content of the formulations. The format is physicochemical. The note with it: formulations for oral administration, not filtered. From the text: Formulations were not filtered.
The formulations were left overnight in the fridge and prior to intravenous administration were filtered (0.8 μm, 13 mm, Acrodisc Syringe Filter, Super Low Protein Binding Non-Pyrogenic Membrane, PALL Life Sciences). A clear filtrate was obtained for Leucine^[5]-Enkephalin and Leucine^[5]-Enkephalin and GCPQ and a translucent liquid was obtained for Palmitoylated Leucine^[5]-Enkephalin (TPLENK) and GCPQ. The administered intravenous volume of the formulations was set to a maximum of 0.2 ml per mouse. […] The maximum volume was dosed for placebo (NaCl, 0.9% w/v) receiving mice.
Polymer dispersions with Leucine^[5]-Enkephalin (LENK) or Palmitoylated Leucine^[5]-Enkephalin (TPLENK) were dissolved in mobile phase and analysed by HPLC. Samples were chromatographed over a reverse phase HPLC Sunfire C18 column (5 μm, 4.6 mm×250 mm) with a guard column attached [Waters Sunfire C18 (5 μm, 4.6 mm×10 mm)], using a Waters™ 515 HPLC pump connected to a Water™ 717 plus Autosampler with a Waters™ 486 Tunable Absorbance Detector. The mobile phase consisted of 82% 50 mM acetate buffer and 18% acetonitrile (pH 5.8). Unless otherwise indicated, samples were detected at 280 nm. The flow rate was set at 1 mL min^−1 at 35° C. and an injection volume of 40 μL was used. […] Empower software I was used for data analysis. […]

Molecules are shown by their SMILES.

For `CC(C)C[C@H](NC(=O)[C@H](Cc1ccccc1)NC(=O)CNC(=O)CNC(=O)[C@@H](N)Cc1ccc(O)cc1)C(=O)O` [L, Leucine^[5]-Enkephalin], the “time of peak Leucine[5]-Enkephalin concentration in the brain tissue” value in data set [1] (70 mg Kg^-1 Leucine[5]-Enkephalin (L, LG) or 100 mg Kg^-1 TPLENK (PG), brain) was 4 h. In addition, the “peak Leucine[5]-Enkephalin concentration in the brain tissue” value in data set [1] (70 mg Kg^-1 Leucine[5]-Enkephalin (L, LG) or 100 mg Kg^-1 TPLENK (PG), brain, at 4 hours) was 0.695 ng/g. In addition, the “peak plasma concentration of Leucine[5]-Enkephalin” value in data set [1] (70 mg Kg^-1 Leucine[5]-Enkephalin (L, LG) or 100 mg Kg^-1 TPLENK (PG), plasma) is given as 29.3 ng 10^−1mL^−1. The Tmax in data set [1] (male, ICR (CD-1), mouse, 70 mg Kg^-1 Leucine[5]-Enkephalin, plasma, read-out: time of peak plasma concentration of Leucine[5]-Enkephalin) was found to be 1 h. The “analgesic responders (response 2 or more times the baseline latency)” value was determined as 31.25% with CD-1 mice [2] and 37.5% in the data set on CD-1 mice [3]. Moreover, the “mice reaching maximal possible latencies” value with CD-1 mice [2] (cut-off 10 seconds) worked out at 6.25%; in the data set on CD-1 mice [3] (cut-off 10 seconds), 0%. In data set [4], the “peptide content of the formulations (HPLC)” value was found to be 99.9%.

Values taken from patent publication US8920819B2, “Delivery of hydrophilic drugs” (University College London, priority 2009, dated 2014).
